This note sets out measurements from ChEMBL document CHEMBL1150915, “Dehydroradiosumin, a trypsin inhibitor from the cyanobacterium Anabaena cylindrica” (J Nat Prod, 1998).

Test [1] in a line: Inhibition of trypsin.
Test [2] addresses Plasminogen (Homo sapiens, UniProt P00747). Briefly: Inhibition of plasmin.
Test [3] addresses Prothrombin (Homo sapiens) (UniProt P00734). Briefly: Inhibition of thrombin at 100 ug/mL.
Test [4] can be described thus: Inhibition of chymotrypsin at 100 ug/mL.
A short description of test [5]: Inhibition of elastase at 100 ug/mL.
In test [6] the target is T1, Papain (Carica papaya) (UniProt P00784).
T1 sequence (whole entry): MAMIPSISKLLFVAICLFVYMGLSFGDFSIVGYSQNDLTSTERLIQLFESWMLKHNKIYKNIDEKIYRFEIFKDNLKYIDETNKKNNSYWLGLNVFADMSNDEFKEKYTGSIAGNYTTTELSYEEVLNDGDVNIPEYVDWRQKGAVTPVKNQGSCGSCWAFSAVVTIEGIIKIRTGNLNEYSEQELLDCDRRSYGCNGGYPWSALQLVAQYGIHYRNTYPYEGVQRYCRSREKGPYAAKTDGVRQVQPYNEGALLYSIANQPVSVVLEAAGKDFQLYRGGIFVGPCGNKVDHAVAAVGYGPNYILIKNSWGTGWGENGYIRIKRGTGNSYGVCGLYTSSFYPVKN
Briefly: Inhibition of Carica papaya papain at 100 ug/mL.

In brackets after ≈: the same amount, converted by molar mass. Activity calls are given as the source filed them. No cut-off for these calls is given here.

Sequence of Plasminogen (P00747 97-580 limits assumed): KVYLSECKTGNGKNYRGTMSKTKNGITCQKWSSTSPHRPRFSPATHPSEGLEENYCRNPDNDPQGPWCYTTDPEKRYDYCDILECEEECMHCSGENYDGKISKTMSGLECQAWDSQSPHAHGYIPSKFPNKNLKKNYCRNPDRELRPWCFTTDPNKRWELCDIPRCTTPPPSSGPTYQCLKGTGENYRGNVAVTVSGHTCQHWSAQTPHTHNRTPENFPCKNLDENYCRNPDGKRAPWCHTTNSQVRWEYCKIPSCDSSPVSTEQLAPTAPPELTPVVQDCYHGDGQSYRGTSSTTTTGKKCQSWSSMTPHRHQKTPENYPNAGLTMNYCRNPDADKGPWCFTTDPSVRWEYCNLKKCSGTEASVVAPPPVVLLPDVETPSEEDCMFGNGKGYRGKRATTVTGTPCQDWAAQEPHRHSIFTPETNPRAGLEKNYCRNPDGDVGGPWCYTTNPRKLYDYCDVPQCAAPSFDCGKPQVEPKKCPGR
Sequence of Plasminogen (P00747 581-810 limits assumed): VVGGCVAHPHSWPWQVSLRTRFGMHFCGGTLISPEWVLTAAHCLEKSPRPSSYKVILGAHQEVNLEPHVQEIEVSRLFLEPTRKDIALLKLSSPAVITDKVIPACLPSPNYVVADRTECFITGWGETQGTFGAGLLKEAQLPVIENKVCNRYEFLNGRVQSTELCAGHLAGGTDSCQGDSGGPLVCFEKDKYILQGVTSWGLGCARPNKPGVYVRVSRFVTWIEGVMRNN

With `CC(=O)N[C@@H](/C=C1/C=C[C@H](N)CC1)C(=O)N[C@@H](/C=C1/C=C[C@H](NC(C)=O)CC1)C(=O)O` [DEHYDRORADIOSUMIN], the results for the IC50 in test [1] and in test [2] were 0.1 mg/L (≈ 0.232 µM) and 209 µM, respectively. For the same compound, the outcome in test [3], in test [4], in test [5] and in test [6] was inactive.

By IC50 is commonly meant the concentration needed to halve the response being measured.
